From patent US20110190227A1, “Antagonists of Prostaglandin D2 Receptors” (Amira Pharmaceuticals, Inc., priority 2008, published 2011)
pIC50: −log10 of the molar value.

Experiments:
human DP2 receptor = biological target: T1, human DP2 receptor (Homo sapiens, UniProt Q9Y5Y4); experiment: DP2/CRTH2 radioligand binding assay ([3H]PGD2); settings: membranes of HEK293 cells expressing recombinant human DP2, 1 nM [3H]PGD2; read-out: hDP2
T1 construct: expressed in transfected cells
T1 sequence (Q9Y5Y4 1-395): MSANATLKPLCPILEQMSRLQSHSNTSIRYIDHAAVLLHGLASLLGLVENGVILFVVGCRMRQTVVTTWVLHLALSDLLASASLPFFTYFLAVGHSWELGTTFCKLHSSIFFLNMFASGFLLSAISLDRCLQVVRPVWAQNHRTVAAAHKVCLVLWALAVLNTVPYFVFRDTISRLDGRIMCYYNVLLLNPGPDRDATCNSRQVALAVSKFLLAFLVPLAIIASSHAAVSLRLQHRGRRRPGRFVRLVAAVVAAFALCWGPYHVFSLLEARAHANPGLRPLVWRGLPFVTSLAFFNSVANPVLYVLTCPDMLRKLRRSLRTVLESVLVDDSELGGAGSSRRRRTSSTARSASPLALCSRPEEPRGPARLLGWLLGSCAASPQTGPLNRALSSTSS
Method: The ability of a compound to bind to the human DP2 receptor is assessed via a radioligand binding assay using [^3H]PGD2. HEK293 cells stably expressing recombinant human DP2 are resuspended in 10 mM Hepes, 7.4 containing 1 mM DTT, lysed and centrifuged at 75,000×g to pellet the membranes. The membranes are resuspended in 10 mM Hepes, 7.4 containing 1 mM DTF and 10% glycerol to approximately 5 mg protein/ml. Membranes (2-10 […]) are incubated in 96-well plates with 1 nM [^3H]PGD2 and test compound in Assay Buffer (50 mM Hepes, 10 mM MnCl2, 1 mM EDTA, plus or minus 0.2% human serum albumin, pH 7.4) for 60 minutes at room temperature. The reactions are terminated by rapid filtration through Whatman GF/C glass fibre filter plates. The filter plates were pre-soaked in 0.33% polythylenimine for 30 minutes at room temperature then washed in Wash Buffer (50 mM Hepes, 0.5 M NaCl pH 7.4) prior to harvesting. After harvesting, the filter plates are washed 3 times with 1 ml cold Wash Buffer then dried. Scintillant is then added to the plates and the radioactivity retained on the filters is determined on a Packard TopCount (Perkin Elmer). Specific binding is determined as total radioactive binding minus non-specific binding in the presence of 10 μM PGD2. IC50s were determined using GraphPad prism analysis of drug titration curves.

human DP1 receptor = biological target: T2, human DP1 receptor (Homo sapiens, UniProt Q13258); experiment: DP1 radioligand membrane binding assay ([3H]BWA868C); settings: human platelet membranes, 2 nM [3H]BWA868C; read-out: hDP1
T2 construct: tissue Biological Specialty Corporation; host or cells: human platelets, membrane preparation
T2 sequence (Q13258 1-359): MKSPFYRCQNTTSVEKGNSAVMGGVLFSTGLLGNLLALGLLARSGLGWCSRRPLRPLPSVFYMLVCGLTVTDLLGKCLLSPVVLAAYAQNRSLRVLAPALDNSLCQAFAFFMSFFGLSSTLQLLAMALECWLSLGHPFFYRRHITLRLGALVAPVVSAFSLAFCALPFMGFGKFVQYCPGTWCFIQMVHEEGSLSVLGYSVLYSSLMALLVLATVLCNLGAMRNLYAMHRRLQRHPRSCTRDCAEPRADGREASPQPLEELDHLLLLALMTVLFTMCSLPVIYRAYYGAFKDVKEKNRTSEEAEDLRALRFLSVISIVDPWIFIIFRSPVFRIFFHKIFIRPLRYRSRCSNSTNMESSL
Method: The ability of a compound to bind to the human DP1 receptor was evaluated via a radioligand membrane binding assay using the DP1 selective synthetic ligand [^3H]BWA868C. Packed human platelets (Biological Specialty Corporation), were resuspended in 6 volumes of Hepes/HBSS buffer (10 mM Hepes, 1 mM DTT in Hanks Balanced Salt Solution (HBSS), lysed and centrifuged at 75,000×g to pellet the membranes. Membranes were resuspended in Hepes/HBSS buffer to approximately 12 mg protein/ml. Membranes (20 μg protein/well) are incubated in 96-well plates with 2 nM [^3H]BWA868C and test compound in Assay Buffer (50 mM Hepes, 10 mM MnCl2, 1 mM EDTA, plus or minus 0.2% human serum albumin, pH 7.4) for 60 minutes at room temperature. The reactions are terminated by rapid filtration through Whatman GF/C glass fibre filter plates. The filter plates were pre-soaked in 0.33% polyethylenimine for 30 minutes at room temperature then washed in Wash Buffer (50 mM Hepes, 0.5 M NaCl pH 7.4) prior to harvesting. After harvesting, the filter plates are washed 3 times with 1 ml cold Wash Buffer then dried. Scintillant is then added to the plates and the radioactivity retained on the filters is determined on a Packard TopCount (Perkin Elmer). Specific binding is determined as total radioactive binding minus non-specific binding in the presence of 10 μM BW A868C. IC50s were determined using GraphPad prism analysis of drug titration curves.

COc1ccc(CC(=O)O)cc1Oc1ccc(C(F)(F)F)cc1CSCCc1ccccc1 [Compound 1-1, [4-Methoxy-3-(2-phenethylsulfanylmethyl-4-trifluoromethyl-phenoxy)-phenyl]-acetic acid]
pIC50 (human DP2 receptor): > 6.52 | pIC50 (human DP1 receptor): < 6.00

Cc1nnc(S(=O)(=O)Cc2cc(Br)ccc2Oc2cccc(CC(=O)O)c2)s1 [Compound 1-26, {3-[4-Bromo-2-(5-methyl-[1,3,4]thiadiazole-2-sulfonylmethyl)-phenoxy]-phenyl}-acetic acid]
pIC50 (human DP2 receptor): > 6.52 | pIC50 (human DP1 receptor): < 6.00

O=C(O)Cc1cccc(Oc2ccc(Br)cc2C[S+]([O-])CCc2ccccc2)c1 (centres unmarked) [Compound 1-30, {3-[4-Bromo-2-(2-phenyl-ethanesulfinylmethyl)-phenoxy]-phenyl}-acetic acid]
pIC50 (human DP2 receptor): > 6.52 | pIC50 (human DP1 receptor): < 6.00

COc1ccc(CC(=O)O)cc1Oc1ccc(C(F)(F)F)cc1CS(=O)(=O)CCc1ccccc1 [Compound 1-5, {4-Methoxy-3-[2-(2-phenyl-ethanesulfonylmethyl)-4-trifluoromethyl-phenoxy]-phenyl}-acetic acid]
pIC50 (human DP2 receptor): > 6.52 | pIC50 (human DP1 receptor): < 6.00

O=C(O)Cc1cccc(Oc2ccc(Br)cc2CS(=O)(=O)CCc2ccccc2)c1 [Compound 1-22, {3-[4-Bromo-2-(2-phenyl-ethanesulfonylmethyl)-phenoxy]-phenyl}-acetic acid]
pIC50 (human DP2 receptor): > 6.52 | pIC50 (human DP1 receptor): < 6.00

COc1ccc(CC(=O)O)cc1Oc1ccc(C(F)(F)F)cc1CSCC(F)(F)F [Compound 1-2, {4-Methoxy-3-[2-(2,2,2-trifluoro-ethylsulfanylmethyl)-4-trifluoromethyl-phenoxy]-phenyl}-acetic acid]
pIC50 (human DP2 receptor): > 6.52 | pIC50 (human DP1 receptor): < 6.00

CS(=O)(=O)c1ccc(-c2ccc(Oc3cccc(CC(=O)O)c3)c(CSc3ccccc3)c2)cc1 [Compound 1-58, [3-(4′-Methanesulfonyl-3-phenylsulfanylmethyl-biphenyl-4-yloxy)-phenyl]-acetic acid]
pIC50 (human DP2 receptor): 6.00 to 6.52 | pIC50 (human DP1 receptor): > 6.52

Cc1nnc(SCc2cc(Br)ccc2Oc2cccc(CC(=O)O)c2)s1 [Compound 1-15, {3-[4-Bromo-2-(5-methyl-[1,3,4]thiadiazol-2-ylsulfanylmethyl)-phenoxy]-phenyl}-acetic acid]
pIC50 (human DP2 receptor): > 6.52 | pIC50 (human DP1 receptor): < 6.00

COc1ccc(CC(=O)O)cc1Oc1ccc(C(=O)c2ccccc2)cc1CSC(C)C [Compound 1-83, [3-(4-Benzoyl-2-isopropylsulfanylmethyl-phenoxy)-4-methoxy-phenyl]-acetic acid]
pIC50 (human DP2 receptor): > 6.52

O=C(O)Cc1cccc(Oc2ccc(Br)cc2C[S+]([O-])c2ccccn2)c1 (centres unmarked) [Compound 1-31, {3-[4-Bromo-2-(pyridine-2-sulfinylmethyl)-phenoxy]-phenyl}-acetic acid]
pIC50 (human DP2 receptor): < 6.00 | pIC50 (human DP1 receptor): < 6.00

CN(C)CCSCc1cc(Br)ccc1Oc1cccc(CC(=O)O)c1 [Compound 1-18, {3-[4-Bromo-2-(2-dimethylamino-ethylsulfanylmethyl)-phenoxy]-phenyl}-acetic acid]
pIC50 (human DP2 receptor): < 6.00 | pIC50 (human DP1 receptor): < 6.00

O=C(O)Cc1cccc(Oc2ccc(Br)cc2CSc2ccccc2)c1 [Compound 1-11, [3-(4-Bromo-2-phenylsulfanylmethyl-phenoxy)-phenyl]-acetic acid]
pIC50 (human DP2 receptor): > 6.52 | pIC50 (human DP1 receptor): 6.00 to 6.52

CN(C)CCS(=O)(=O)Cc1cc(Br)ccc1Oc1cccc(CC(=O)O)c1 [Compound 1-27, {3-[4-Bromo-2-(2-dimethylamino-ethanesulfonylmethyl)-phenoxy]-phenyl}-acetic acid]
pIC50 (human DP2 receptor): > 6.52 | pIC50 (human DP1 receptor): < 6.00

COc1ccc(CC(=O)O)cc1Oc1ccc(C(F)(F)F)cc1CSC(C)(C)C [Compound 1-3, [3-(2-tert-Butylsulfanylmethyl-4-trifluoromethyl-phenoxy)-4-methoxy-phenyl]-acetic acid]
pIC50 (human DP2 receptor): 6.00 to 6.52 | pIC50 (human DP1 receptor): < 6.00

O=C(O)Cc1cccc(Oc2ccc(Br)cc2COc2ccccc2)c1 [Compound 1-37, [3-(4-Bromo-2-phenoxymethyl-phenoxy)-phenyl]-acetic acid]
pIC50 (human DP2 receptor): < 6.00 | pIC50 (human DP1 receptor): 6.00 to 6.52

COc1ccc(CC(=O)O)cc1Oc1ccc(Cl)cc1CSCc1ccccc1 [Compound 1-54, [3-(2-Benzylsulfanylmethyl-4-chloro-phenoxy)-4-methoxy-phenyl]-acetic acid]
pIC50 (human DP2 receptor): > 6.52 | pIC50 (human DP1 receptor): 6.00 to 6.52

O=C(O)Cc1cccc(Oc2ccc(Br)cc2CSCc2ccccc2)c1 [Compound 1-12, [3-(2-Benzylsulfanylmethyl-4-bromo-phenoxy)-phenyl]-acetic acid]
pIC50 (human DP2 receptor): > 6.52 | pIC50 (human DP1 receptor): > 6.52

Cn1cc(-c2ccc(Oc3cccc(CC(=O)O)c3)c(CSc3ccccc3)c2)cn1 [Compound 1-57, {3-[4-(1-Methyl-1H-pyrazol-4-yl)-2-phenylsulfanylmethyl-phenoxy]-phenyl}-acetic acid]
pIC50 (human DP2 receptor): 6.00 to 6.52 | pIC50 (human DP1 receptor): < 6.00

Cc1nnc([S+]([O-])Cc2cc(Br)ccc2Oc2cccc(CC(=O)O)c2)s1 (centres unmarked) [Compound 1-34, {3-[4-Bromo-2-(5-methyl-[1,3,4]thiadiazole-2-sulfinylmethyl)-phenoxy]-phenyl}-acetic acid]
pIC50 (human DP2 receptor): > 6.52 | pIC50 (human DP1 receptor): < 6.00

O=C(O)Cc1cccc(Oc2ccc(Br)cc2C[S+]([O-])c2ccc3ccccc3n2)c1 (centres unmarked) [Compound 1-32, {3-[4-Bromo-2-(quinoline-2-sulfinylmethyl)-phenoxy]-phenyl}-acetic acid]
pIC50 (human DP2 receptor): > 6.52 | pIC50 (human DP1 receptor): < 6.00

COc1ccc(CC(=O)O)cc1Oc1ccc(NC(=O)C(C)(C)C)cc1COc1ccccc1 [Compound 1-118, {3-[4-(2,2-Dimethyl-propionylamino)-2-phenoxymethyl-phenoxy]-4-methoxy-phenyl}-acetic acid]
pIC50 (human DP2 receptor): 6.00 to 6.52

COc1ccc(CC(=O)O)cc1Oc1ccc(NS(=O)(=O)c2cccc3c(N(C)C)cccc23)cc1CSC(C)(C)C [Compound 1-119, {3-[2-tert-Butylsulfanylmethyl-4-(5-dimethylamino-naphthalene-1-sulfonylamino)-phenoxy]-4-methoxy-phenyl}-acetic acid]
pIC50 (human DP2 receptor): > 6.52

COc1ccc(CC(=O)O)cc1Oc1ccc(-c2cnn(C)c2)cc1CSC(C)C [Compound 1-63, {3-[2-Isopropylsulfanylmethyl-4-(1-methyl-1H-pyrazol-4-yl)-phenoxy]-4-methoxy-phenyl}-acetic acid]
pIC50 (human DP2 receptor): > 6.52

COc1ccc(CC(=O)O)cc1Cc1ccc(NC(=O)C(C)(C)C)cc1CSC(C)(C)C [Compound 1-107, {3-[2-tert-Butylsulfanylmethyl-4-(2,2-dimethyl-propionylamino)-benzyl]-4-methoxy-phenyl}-acetic acid]
pIC50 (human DP2 receptor): > 6.52

COc1ccc(CC(=O)O)cc1Oc1ccc(-c2cnn(C)c2)cc1CS(=O)(=O)C(C)C [Compound 1-64, {4-Methoxy-3-[4-(1-methyl-1H-pyrazol-4-yl)-2-(propane-2-sulfonylmethyl)-phenoxy]-phenyl}-acetic acid]
pIC50 (human DP2 receptor): 6.00 to 6.52
